ChEMBL document CHEMBL3137667, “[Drug-induced liver injury; fourteenth updated edition of the bibliographic database of liver injuries and related drugs]” (Gastroenterol Clin Biol, 2004)

Tests used:
[1] = Highest frequency of acute liver toxicity observed during clinical trials, expressed as a percentage. [column '% AIGUE' in source]; details: human
[2] = human
[3] = human, serum
[4] = human; remark: listed apart in the source
[5] = human; remark: listed apart in the source
[6] = human; remark: listed apart in the source
[7] = human; remark: listed apart in the source
[8] = human; remark: listed apart in the source
[9] = human; remark: listed apart in the source
[10] = human, serum; remark: listed apart in the source
[11] = Presence of at least one case with successful reintroduction. [column 'REINT' in source]; details: human
[12] = human; remark: listed apart in the source
[13] = Times to onset, minimal and maximal, observed in the indexed observations. [column 'DELAI' in source]; details: human
[14] = human; remark: listed apart in the source
[15] = human, serum, 4383 h
[16] = Highest frequency of moderate liver toxicity observed during clinical trials, expressed as a percentage. [column '% BIOL' in source]; details: human
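For Hepatotoxicity (association with vascular disease) in this document: count of indexed literature references reporting vascular liver injury in humans, e.g. peliosis hepatitis, hepatic veno-occlusive disease or Budd-Chiari syndrome.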
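For Hepatotoxicity (benign tumour) in this document: value is a count of indexed literature references citing a benign tumour confirmed by histopathology.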
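For Hepatotoxicity (choleostasis) in this document: human cholestatic liver injury, shown by histopathology or by peak ALT or AST elevation over alkaline phosphatase ratio below 2, value counts indexed literature reports.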
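For Hepatotoxicity (chronic liver disease) in this document: chronic liver injury confirmed by histopathology or persistently raised serum aminotransferase activity beyond 6 months, value given as the count of indexed literature references.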
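For Hepatotoxicity (cirrhosis) in this document: value is a count of indexed literature references reporting cirrhosis confirmed by histopathology.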
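For Hepatotoxicity (cytolytic) in this document: human cytolytic liver injury, shown by histopathology or by a ratio above 5 of peak ALT or AST elevation to alkaline phosphatase elevation, value counts indexed references.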
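For Hepatotoxicity (granulomatous hepatitis) in this document: value is a count of indexed literature references reporting granulomatous liver disease confirmed by histopathology.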
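For Hepatotoxicity (malignant tumour) in this document: malignant tumour confirmed by histopathology, value gives the count of indexed literature references reporting it.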
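For Hepatotoxicity (severe hepatitis) in this document: human clinical data: severe hepatitis, meaning potentially life-threatening liver failure or clinically observed cases, the value counts how many indexed literature references report it.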
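For Hepatotoxicity (steatosis) in this document: steatosis confirmed by histopathology, value is the count of indexed references.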

Molecule | Hepatotoxicity (acute) [1] [%] | Hepatotoxicity (cytolytic) [2] | Hepatotoxicity (moderate) [3] | Hepatotoxicity (granulomatous hepatitis) [4] | Hepatotoxicity (steatosis) [5] | Hepatotoxicity (severe hepatitis) [6] | Hepatotoxicity (benign tumour) [7] | Hepatotoxicity (cirrhosis) [8] | Hepatotoxicity (malignant tumour) [9] | Hepatotoxicity (acute) [10] | Hepatotoxicity (successful reintroduction) [11] | Hepatotoxicity (association with vascular disease) [12] | Hepatotoxicity (time to onset) [13] | Hepatotoxicity (choleostasis) [14] | Hepatotoxicity (chronic liver disease) [15] | Hepatotoxicity (moderate) [16] [%] | Hepatotoxicity (acute) ([1]; Liver) [%] | Hepatotoxicity (severe hepatitis) ([6]; Liver) | Hepatotoxicity (moderate) ([16]; Liver) [%] | further results
C[C@]12C/C(=C/O)C(=O)C[C@@H]1CC[C@@H]1[C@@H]2CC[C@@]2(C)[C@H]1CC[C@]2(C)O [OXYMETHOLONE] | 52.8 | 1 | 2 | 0 | 0 | 2 | 11 | 0 | 14 | 10 | yes | 12 | 11 days - 15 years | 3 | 0 | 50 |  |  |  | 
CN(C)Cc1ccc(CSCCN/C(=C\[N+](=O)[O-])NCc2ccc3c(c2)OCO3)o1 [NIPEROTIDINE] |  |  | 0 |  | 0 |  | 0 | 0 | 0 | 2 | yes | 0 | 15 days - 7 months |  | 0 |  | 0 | 2 | 0 | Hepatotoxicity (cytolytic) ([2]; Liver): 2; Hepatotoxicity (granulomatous hepatitis) ([4]; Liver): 0; Hepatotoxicity (choleostasis) ([14]; Liver): 2
CN(C)C/C=C(/c1ccc(Br)cc1)c1cccnc1 [ZIMELDINE] | 6.6 | 3 | 9 | 2 | 0 | 0 | 0 | 0 | 0 | 4 | yes | 0 | 2 weeks - 2 months | 3 | 0 | 20.5 |  |  |  | 
CN(C)CCCn1c2c(c3ccccc31)CCCCCC2 [IPRINDOLE] |  |  | 1 |  | 0 |  | 0 | 0 | 0 | 6 | yes | 0 | 2 weeks - 1 month |  | 0 |  | 0 | 0 | 0 | Hepatotoxicity (cytolytic) ([2]; Liver): 1; Hepatotoxicity (granulomatous hepatitis) ([4]; Liver): 0; Hepatotoxicity (choleostasis) ([14]; Liver): 6
PEGVISOMANT | 1.3 | 2 | 0 | 0 | 0 | 0 | 0 | 0 | 0 | 2 | yes | 0 | 4 weeks - 8 weeks | 0 | 0 | 0 |  |  |  | 
NCCS [CYSTEAMINE] | 0 | 1 | 0 | 0 | 0 | 0 | 0 | 0 | 0 | 1 | yes | 1 | 2 weeks - 2 years | 0 | 0 | 0 |  |  |  | 
O=C(O)CCC(=O)c1ccc(-c2ccccc2)cc1 [FENBUFEN] | 0 | 1 | 7 | 0 | 0 | 0 | 0 | 0 | 0 | 5 | yes | 0 | 10 days - 2 weeks | 2 | 0 | 25 |  |  |  | 
C=C(CC)C(=O)c1ccc(OCC(=O)O)c(Cl)c1Cl [ETHACRYNIC ACID] | 0 | 2 | 0 | 0 | 0 | 2 | 0 | 0 | 0 | 2 | yes | 0 | 2 weeks - 4 weeks | 0 | 0 | 0 |  |  |  | 
COc1c2occc2cc2ccc(=O)oc12 [METHOXSALEN] |  | 3 | 1 | 0 | 0 |  | 0 | 0 | 0 |  | yes | 0 | 2 hours - 5 months | 0 | 0 |  | 0 | 1 | 0 | 
COc1cc(Cc2cnc(N)nc2N)cc(OC)c1OC [TRIMETHOPRIM] |  |  | 1 |  | 0 |  | 0 | 0 | 0 |  | yes | 0 | 5 days - 24 days |  | 0 |  | 0 | 1 | 5.9 | Hepatotoxicity (cytolytic) ([2]; Liver): 2; Hepatotoxicity (granulomatous hepatitis) ([4]; Liver): 0; Hepatotoxicity (choleostasis) ([14]; Liver): 5
CNC1=Nc2ccc(Cl)cc2C(c2ccccc2)=[N+]([O-])C1 [CHLORDIAZEPOXIDE] | 0 | 1 | 3 | 0 | 0 | 0 | 0 | 0 | 0 |  | yes | 0 | 2 days - 3 years | 3 | 0 | 11 |  |  |  | 
